Measured values taken from paper PMC5608406, “In vivo activation of latent HIV with a synthetic bryostatin analog effects both latent cell "kick" and "kill" in strategy for virus eradication” (PLoS Pathogens, 2017).

How the values were obtained:
U1 cells = test: Activation of HIV from latency in U1 cell line (p24 ELISA); type: cell-based; details: 48h
Description: U1 cells (tested negative for bacteria, mold, yeast, and mycoplasma) were obtained through the AIDS Reagent Program, Division of AIDS, NIAID, NIH from Dr. Thomas Folks. Cells and compound were seeded in a final 200 μL volume of RF10 media at a cell density of 20,000 cells/well in v-bottomed 96 well plates and incubated at 37°C for 48 hours. After incubation, cells were pelleted and supernatant harvested then diluted in a 2% Triton-x-100/phosphate buffered saline solution. The concentration of HIV p24 protein in the culture supernatant was quantified using the HIV p24 antigen enzyme linked immunosorbent assay (ELISA) kit (Beckman Coulter) according to the manufacturer’s instructions.

primary CD4+ T cells = test: Induction of CD69 expression in primary CD4+ T cells; type: cell-based, human; details: 24h
Description: Primary human cells from HIV seronegative individuals were cultured in “RF10 medium” consisting of RPMI 1640 medium supplemented with 10% fetal bovine serum (FBS, Omega Scientific), 100 U/mL of penicillin, and 100 μg/mL of streptomycin (Invitrogen). PBMCs were isolated using Ficoll-Paque Plus separation (GE Healthcare). Primary CD4+ T cells were separated from PBMCs by negative immunomagnetic selection using the CD4+ T cell Isolation Kit (Miltenyi Biotec) according to the manufacturer’s instructions. Cells were then exposed to compound for 24 hours before staining and flow cytometric analysis of CD69 levels. Compound incubations were performed by seeding 10^5 cells/well in 100 μL of RF10 media containing the appropriate concentration of compound in wells of a v-bottomed 96-well plate. Bryostatin 1 (Tocris bioscience) and Prostratin (LC Laboratories) were obtained commercially, and bryologs or prostratin analogs were synthesized as previously described.
For human PBMC CD69 induction experiments, cells were stained with CD69-ECD (Beckman Coulter 6607110). During staining, cells were incubated at 4 °C for 20 minutes, washed with 2% FBS in PBS, and then resuspended in 2% paraformaldehyde. Stained samples were stored at 4 °C.
Flow cytometry samples were analyzed using a Cytomics FC 500 (Beckman Coulter) or a LSR Fortessa (BD Biosciences) flow cytometer. Data were analyzed using FlowJo (v7) software.

murine splenocytes = test: In vivo bioactivity (CD69/CD25 in splenocytes) in C57/bl6 mice
Description: (§1) C57/bl6 mice were obtained from the UCLA Department of Radiation Oncology. Compounds were suspended in DMSO and then further diluted in RF10 media to produce a final volume of 500 μL (containing a maximum 4% DMSO). These 500 μL volumes were administered to mice by intraperitoneal injection. Mice were monitored for acute toxicities and then sacrificed at the indicated times. Spleens were removed and disaggregated using a steel mesh, and then filtered through a 40 μm filter to produce a single-cell suspension. The resultant splenocytes were then stained for flow cytometry to analyze surface expression of relevant markers.
During standard flow cytometry staining, samples of 10^5 cells were suspended in 50 μL of a 1:1 dilution of phosphate buffered saline (PBS):Human AB serum (Sigma). Staining of C57/bl6 mouse splenocytes was performed by adding the following anti-mouse fluorescent conjugated antibodies: CD3-Fluorescein isothiocyanate (FITC, eBioscience 11-0032-82); CD69-Phycoerythrin (PE, eBioscience 12-0691-83); and CD4-Allophycocyanin (APC, eBioscience 17-0041-83). In some experiments CD4-APC was replaced with CD25-APC (eBioscience 17-0251-82) and CD4-Phycoerythrin Cyanin 7 (PC7, eBioscience 25-0041-82). For humanized mouse studies, PBMC and splenocytes from BLT mice were stained with anti-mouse CD45-Alexa 700 (Biolegend 103128) and the following anti-human antibodies: CD45-e450 (eBioscience 48-0459-42); CD3-APC-780 (eBioscience; 47-0038-42); CD4-V500 (BD biosciences; 560768); CD8-Peridinin chlorophyll protein (PerCP)-710 (eBioscience 46-0087-42); CD25-PE (Beckman IM0479U); CD69-APC (Biolegend 310910); CD14-PE-Cy7 (Biolegend 325618). Cells were separately stained for anti-human CD45 e450- (eBioscience 48-0459-42) and anti-HA-Biotin PE (Roche 12158167001) followed by a secondary Streptavidin, R-Phycoerythrin Conjugate (Invitrogen s866) stain. This two-step stain was performed by incubating 1-2x10^6 cells at 4°C for 20–30 min, washing with 2% FBS in PBS, then adding the secondary stain, incubating again at 4°C for 20–30 min, and washing with 2% FBS in PBS before fixation with 2% paraformaldehyde. In some experiments, cell death was also evaluated by GHOST Red 780 (Tonbo Biosciences 13–0865) or Zombie Yellow (Biolegend 423104) stains. For this procedure, 10^6 cells were suspended in 100 μL PBS, and then the Zombie yellow and GHOST Red 780 dyes added. Cells were incubated for 20 min at room temperature in the dark and then washed twice with 2% FBS in PBS. Cells were then fixed with 2% paraformaldehyde and incubated for 20 min in the dark. In some experiments cells were then washed with 2% FBS in PBS, resuspended in 1:1 PBS:Human AB serum and then stained for human CD45 and HA, CD3-PE-Cy5 (Biolegend 300310), CD4-ECD (Beckman 6604727), CD8 Per-CO710 (eBioscience 46-0087-42) and CD3-APC (Cell signaling 9602S) as described above.

C57/bl6 mice = test: In vivo acute toxicity / tolerability in C57/bl6 mice; details: intraperitoneal injection, in some cases
Description: as §1

[1] = system: human T cells in BLT mice; test: Stimulation of human cells in uninfected humanized BLT mice (CD69, CD25); type: in vivo; details: spleen and blood, one day after stimulation
[2] = system: HA+ (HIV-expressing) cells; type: in vivo, humanized BLT mice; details: within 24 hours of activation, Ghost Red and Zombie Yellow
J-Lat 10.6 cell line = system: J-Lat 10.6 cell line; set-up: method as in PMID 22914190; details: cited from earlier work

## C=C1C[C@H]2C[C@]3(O)O[C@H](C[C@@H](O)CC(=O)O[C@@H](CO)C[C@@H]4C/C(=C\C(=O)OC)[C@H](OC(=O)CCCCCCC)[C@@](O)(O4)C(C)(C)/C=C/[C@@H](C1)O2)C[C@H](OC(C)=O)C3(C)C [SUW133]
U1 cells
  induction of latent virus (HIV p24 in supernatant): induced significant levels of latent virus
Primary CD4+ T cells
  CD69 expression: upregulates expression
Murine splenocytes; intraperitoneal injection, 24h post-injection, maximum over ascending doses
  CD4+ splenocytes expressing CD69: over 80%
Murine splenocytes; intraperitoneal injection, C57/bl6 mice
  lowest dose inducing CD69 expression: 1 µg
Murine splenocytes; single injection of 10 μg
  CD25 expression on CD3+ T cells in spleen: remained unchanged
Murine splenocytes; single injection of 10 μg, up to day 9
  CD69 expression on splenocytes, time course: transient expression of CD69 on the vast majority of murine splenocytes
C57/bl6 mice
  tolerated dose: up to 30 μg per animal
[1]
  CD25 expression in human T cells: limited CD25 expression
  CD69 expression in human T cells: robust activation of CD69
[2]
  cells induced to express HIV that stained with cell death dyes: up to 25%
J-Lat 10.6 cell line
  induction of HIV from latency: effectively induced HIV from latency
